Laboratory results as given in patent US11376255B2, “Thiocarbamate derivatives as A2A inhibitors, pharmaceutical composition thereof and combinations with anticancer agents” (iTeos Belgium SA, priority 2018, dated 2022).

What was measured:
CT26 mouse tumor cells = experiment: Syngeneic CT26 experimental colon cancer model in combination with Doxorubicin and/or anti-TIGIT mAb
[1] = system: A20 mouse B-cell tumor cells; experiment: Syngeneic A20 experimental lymphoma model in combination with anti-PD-L1; format: in vivo, BALB/c mice; conditions: for TGI: day 23
Method: In this study the anti-tumor efficacy of Compound 7 was assessed either as single agent (monotherapy) or in combination with antagonist anti-Programmed Death-Ligand 1 (anti-PD-L1) monoclonal antibody (10F.9G2, BioXcell) in a model of B cell lymphoma model. (NCR-A2A-031).
BALB/c female mice (8 weeks old) were inoculated with A20 mouse B-cell tumor cells, subcutaneously in the right lower flank region (day 0). When tumors reached a size of about 50 mm^3 (Day 7), mice were allocated randomly into groups and treatment was initiated.

Hepa 1-6 tumor cells = experiment: Syngeneic HEPA1-6 mouse liver tumor model; format: in vivo, C57BL/6 mice; conditions: 3 mg/kg p.o. BID, single agent; calculated on Day 22
Source text: This study evaluated the anti-tumor activity of Compound 7 in a mouse hepatoma model (NCR-A2A-032).
C57BL/6 female mice (8 weeks old) were inoculated subcutaneously in the right flank region with Hepa 1-6 tumor cells (on day 0). When tumor size reached about 50 mm^3 (on Day 4), mice were randomly allocated into experimental groups and treatment was initiated from day 4 to 25.

MCA205 tumor cells = experiment: Syngeneic MCA205 experimental fibrosarcoma model in combination with Oxaliplatin; format: in vivo, C57BL/6 mice; conditions: Oxaliplatin 10 mg/kg i.p. single administration at D11, single agent; p=0.0202
Source text: MCA205 tumor cells were inoculated subcutaneously into the right flank of C57BL/6 mice. When tumors reached an average size of about 80 mm^3, mice were randomly allocated into groups.

Human CD3+ T cells = experiment: Human T cell activation assay in presence of ATP (CFSE proliferation, TNFα AlphaLISA); conditions: ATP 100 μM, 72 hours
Source text: PBMC and CD3^+ T cell isolation. Venous blood from healthy volunteers was obtained via ImmuneHealth (Centre Hospitalier Universitaire Tivoli, La Louviere, Belgium). Peripheral blood mononuclear cells (PBMCs) were collected by density gradient centrifugation, using SepMate-50 tubes (StemCell Technologies, Grenoble, France) and Lymphoprep (Axis-shield, Oslo, Norway) according to the manufacturer's instructions. PBMCs were stored in heat inactivated foetal bovine serum (hiFBS; Gibco, ThermoFisher Scientific, Merelbeke, Belgium) containing 10% DMSO in liquid nitrogen until required. PBMCs were thawed and washed into PBS (with 10% hiFBS) and labelled with 1 μM CFSE (Life Technologies) at room temperature for 5 minutes. Cells were washed into StemCell isolation buffer and CD3^+ T cells were isolated by immunomagnetic negative selection, using the EasySep Human T Cell Isolation Kit (StemCell Technologies) as per manufacturer's instructions.
Human T cell activation assay. […]
Cells were placed in a 37° C. humidified tissue culture incubator with 5% CO2 for 72 hours. […] Proliferation of CD4^+ T cells was assessed by determining CFSE dilution by flow cytometry using a BD LSRFortessa (BD Biosciences). Supernatants were later thawed and TNFα was quantified using the AlphaLISA Human TNFα Biotin-Free Detection Kit (AL325; Perkin-Elmer, Zaventem, Belgium), according to the manufacturer's instructions.

COc1cccc2c1C(=O)c1c(O)c3c(c(O)c1C2=O)C[C@@](O)(C(=O)CO)C[C@@H]3O[C@H]1C[C@H](N)[C@H](O)[C@H](C)O1 [Doxorubicin]
anti-tumor efficacy compared to anti-TIGIT mAb or Doxorubicin stand-alone (CT26 mouse tumor cells; Doxorubicin 6 mg/kg in combination with anti-TIGIT mAb 1 mg/kg, p=0.008 and p=0.0002): improved anti-tumor efficacy
tumor growth (CT26 mouse tumor cells; Doxorubicin 6 mg/kg on day 10 and 14, single agent, p=0.14): no significant effect on tumor growth
complete responders (CR) (CT26 mouse tumor cells; anti-TIGIT+Doxorubicin combination, out of 10 mice): one

C[S@@+]([O-])CCOc1cc(N2CCN(CCn3c(=O)sc4c3nc(N)n3nc(-c5ccco5)nc43)CC2)c(F)cc1F (racemic) [Compound 7, (R,S)-5-amino-3-(2-(4-(2,4-difluoro-5-(2-(methylsulfinyl)ethoxy)phenyl)piperazin-1-yl)ethyl)-8-(furan-2-yl)thiazolo[5,4-e][1,2,4]triazolo[1,5-c]pyrimidin-2(3H)-one]
TGI ([1]; Compound 7 0.3 mg/kg p.o. BID in combination with anti-PD-L1 mAb 5 mg/kg i.p. Q3D×3): 76%
TGI ([1]; Compound 7 3 mg/kg BID in combination with anti-PD-L1 mAb 5 mg/kg i.p. Q3D×3): 82%
interaction with anti-PD-L1 mAb on growth of established A20 tumor (statistical analysis) ([1]; combination with anti-PD-L1 mAb, p=0.017): synergises with anti-PD-L1 mAb
tumor growth inhibition (TGI) (Hepa 1-6 tumor cells): 44%

O=C1[O][Pt]2([NH][C@@H]3CCCC[C@H]3[NH]2)[O]C1=O [Oxaliplatin]
tumor growth compared to Vehicle (MCA205 tumor cells): significant delay in tumor growth

CCN(CC)c1ncnc2c1ncn2[C@@H]1O[C@H](COP(=O)(O)OP(=O)(O)C(Br)(Br)P(=O)(O)O)[C@@H](O)[C@H]1O [ARL67156]
restoration of TNFα production inhibited by ATP (Human CD3+ T cells; CD39 inhibitors ARL67156 100 μM and POM-1 10 μM without compound 8a): approximately 50%
CD4+ T cell proliferation inhibited by ATP (Human CD3+ T cells; combination of CD39 inhibitors ARL67156 100 μM and POM-1 10 μM): almost completely rescued
